Data reported in patent US20110269811A1, “INHIBITORS OF SEMICARBAZIDE-SENSITIVE AMINE OXIDASE (SSAO) AND VAP-1 MEDIATED ADHESION USEFUL FOR TREATMENT AND PREVENTION OF DISEASES” (priority 2006, published 2011).
Blank lines part the entries; values can stand above or below the molecule they belong to.

Experiments:
Rat SSAO = biological target: T1, Rat SSAO (Rattus norvegicus, UniProt O08590); test: In vitro inhibition of SSAO activity, rat lung homogenate, 14C-benzylamine; format: biochemical
T1 construct: rat lung or human umbilical cord homogenates were prepared by chopping the freshly removed tissue; from tissue; host or cells: rat lung homogenate (1000 g supernatant)
T1 sequence (O08590 1-763): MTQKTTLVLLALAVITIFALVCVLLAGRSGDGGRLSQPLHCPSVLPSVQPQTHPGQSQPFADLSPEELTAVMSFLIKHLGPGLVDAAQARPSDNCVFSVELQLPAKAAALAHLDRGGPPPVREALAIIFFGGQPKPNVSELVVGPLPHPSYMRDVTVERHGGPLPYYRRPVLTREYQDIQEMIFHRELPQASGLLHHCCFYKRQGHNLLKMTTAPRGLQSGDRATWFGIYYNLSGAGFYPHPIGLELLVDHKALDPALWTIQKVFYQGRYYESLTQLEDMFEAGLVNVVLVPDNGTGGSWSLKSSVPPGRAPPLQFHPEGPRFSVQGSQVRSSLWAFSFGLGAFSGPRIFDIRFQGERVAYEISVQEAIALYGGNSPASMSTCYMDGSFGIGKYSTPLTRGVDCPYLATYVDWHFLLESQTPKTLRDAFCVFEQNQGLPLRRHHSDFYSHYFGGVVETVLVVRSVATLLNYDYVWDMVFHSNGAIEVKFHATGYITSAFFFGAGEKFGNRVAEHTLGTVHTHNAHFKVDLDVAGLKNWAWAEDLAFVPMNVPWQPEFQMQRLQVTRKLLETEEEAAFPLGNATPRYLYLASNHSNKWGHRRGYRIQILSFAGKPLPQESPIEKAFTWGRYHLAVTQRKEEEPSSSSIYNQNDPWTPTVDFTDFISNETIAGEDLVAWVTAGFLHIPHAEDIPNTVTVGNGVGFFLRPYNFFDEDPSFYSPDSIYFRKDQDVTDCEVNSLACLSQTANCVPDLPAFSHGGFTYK
Description: SSAO activity was measured as described (Lizcano J M. Et al. (1998) Biochem J. 331:69). Briefly, rat lung or human umbilical cord homogenates were prepared by chopping the freshly removed tissue into small pieces and washing them thoroughly in PBS. The tissue was then homogenized 1:10 (w/v) for lung or 1:5 (w/v) for umbilical cord, in 10 mM potassium phosphate buffer (pH 7.8). Homogenates were then centrifuged at 1000 g at 4° C. for 10 min (lung) or 25,000 g for 30 min (umbilical cord); the supernatants were kept frozen until ready to use. Lung or umbilical cord homogenate was preincubated with clorgyline and pargyline at 1 μM to inhibit MAO-A and -B activity, respectively, and SSAO inhibitors were generally present at 1 nM-10 μM. The reaction was initiated by addition of 20 μM ^14C— benzylamine as substrate. The reaction was carried out at 37° C. in a final volume of 400 μL of 100 mM potassium phosphate buffer (pH 7.2) and stopped with 100 μl of 2M citric acid. Radioactively labeled products were extracted into toluene/ethyl acetate (1:1, v/v) containing 0.6% (w/v) 2,5-diphenyloxazole (PPO) before liquid scintillation counting.

A3 (h) = biological target: T2, A3 (h) (Homo sapiens, UniProt P0DMS8); test: Receptor binding screen, [^125I]AB-MECA; details: 10 uM Concentration of Compound I-1-Z; read-out: Mean Value, percent inhibition of control specific binding: A3 (h)
T2 construct: expressed in transfected cells; host or cells: HEK-293 cells
T2 sequence (P0DMS8 whole entry): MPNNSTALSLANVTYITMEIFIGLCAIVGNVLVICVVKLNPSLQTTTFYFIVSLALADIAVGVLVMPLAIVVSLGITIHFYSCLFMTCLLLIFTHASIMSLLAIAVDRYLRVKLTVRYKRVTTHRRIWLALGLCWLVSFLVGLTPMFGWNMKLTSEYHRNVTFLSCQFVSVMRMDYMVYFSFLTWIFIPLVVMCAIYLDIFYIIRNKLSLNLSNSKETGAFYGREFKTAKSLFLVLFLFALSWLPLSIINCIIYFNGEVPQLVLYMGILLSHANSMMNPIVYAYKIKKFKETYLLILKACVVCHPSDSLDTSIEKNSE

α2 (non-selective) = test: Receptor binding screen, [^3H]RX 821002; set-up: species or system rat; details: 10 uM Concentration of Compound I-1-Z
Description: (§1) For Table 4 below, the specific ligand binding to the receptors is defined as the difference between the total binding and the nonspecific binding determined in the presence of an excess of unlabelled ligand. The results are expressed as a percent inhibition of control specific binding obtained in the presence of Compound I-1-Z. The IC50 values (concentration causing a half-maximal inhibition of control specific binding) and Hill coefficients (nH) were determined by non-linear regression analysis of the competition curves using Hill equation curve fitting. The inhibition constants (Ki) were calculated from the Cheng Prusoff equation (Ki=IC50/(1+(L/KD)), where L=concentration of radioligand in the assay, and KD=affinity of the radioligand for the receptor). In each experiment, the respective reference compound was tested concurrently with Compound I-1-Z in order to assess the assay suitability.

CCKB (h) (CCK2) = biological target: T3, CCKB (h) (CCK2) (Homo sapiens, UniProt P32239); test: Receptor binding screen, [^125I]CCK-8; details: 10 uM Concentration of Compound I-1-Z; read-out: Mean Value, percent inhibition of control specific binding: CCKB (h) (CCK2)
T3 construct: expressed in transfected cells; host or cells: CHO cells
T3 sequence (P32239 whole entry): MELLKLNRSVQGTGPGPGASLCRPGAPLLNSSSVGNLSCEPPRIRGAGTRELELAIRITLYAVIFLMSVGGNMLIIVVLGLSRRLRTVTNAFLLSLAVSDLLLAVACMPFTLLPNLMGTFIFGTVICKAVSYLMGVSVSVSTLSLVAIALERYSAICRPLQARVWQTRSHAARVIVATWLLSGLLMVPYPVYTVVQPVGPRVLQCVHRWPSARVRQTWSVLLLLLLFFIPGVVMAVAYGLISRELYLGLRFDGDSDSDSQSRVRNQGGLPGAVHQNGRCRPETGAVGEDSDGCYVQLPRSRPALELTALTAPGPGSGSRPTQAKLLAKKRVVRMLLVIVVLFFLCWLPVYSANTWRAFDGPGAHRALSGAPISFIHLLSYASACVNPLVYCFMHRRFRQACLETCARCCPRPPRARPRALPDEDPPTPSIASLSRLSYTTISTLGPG

D3 (h) = biological target: T4, D3 (h) (Homo sapiens, UniProt P35462); test: Receptor binding screen, [^3H]spiperone; details: 10 uM Concentration of Compound I-1-Z; read-out: Mean Value, percent inhibition of control specific binding: D3 (h)
T4 construct: expressed in transfected cells; host or cells: CHO cells
T4 sequence (P35462 whole entry): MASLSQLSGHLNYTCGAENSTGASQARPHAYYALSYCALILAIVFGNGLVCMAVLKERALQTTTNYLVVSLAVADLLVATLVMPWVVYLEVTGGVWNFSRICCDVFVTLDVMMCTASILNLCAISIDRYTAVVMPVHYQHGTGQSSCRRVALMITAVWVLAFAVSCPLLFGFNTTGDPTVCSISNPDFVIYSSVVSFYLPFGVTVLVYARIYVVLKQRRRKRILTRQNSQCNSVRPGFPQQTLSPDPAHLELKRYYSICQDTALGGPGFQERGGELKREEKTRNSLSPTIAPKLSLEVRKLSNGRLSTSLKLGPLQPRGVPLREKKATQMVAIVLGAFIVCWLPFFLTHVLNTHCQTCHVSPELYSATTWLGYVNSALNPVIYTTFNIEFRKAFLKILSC

ETA (h) = biological target: T5, ETA (h) (Homo sapiens, UniProt P25101); test: Receptor binding screen, [^125I]endothelin-1; details: 10 uM Concentration of Compound I-1-Z; read-out: Mean Value, percent inhibition of control specific binding: ETA (h)
T5 construct: expressed in transfected cells; host or cells: CHO cells
T5 sequence (P25101 21-427): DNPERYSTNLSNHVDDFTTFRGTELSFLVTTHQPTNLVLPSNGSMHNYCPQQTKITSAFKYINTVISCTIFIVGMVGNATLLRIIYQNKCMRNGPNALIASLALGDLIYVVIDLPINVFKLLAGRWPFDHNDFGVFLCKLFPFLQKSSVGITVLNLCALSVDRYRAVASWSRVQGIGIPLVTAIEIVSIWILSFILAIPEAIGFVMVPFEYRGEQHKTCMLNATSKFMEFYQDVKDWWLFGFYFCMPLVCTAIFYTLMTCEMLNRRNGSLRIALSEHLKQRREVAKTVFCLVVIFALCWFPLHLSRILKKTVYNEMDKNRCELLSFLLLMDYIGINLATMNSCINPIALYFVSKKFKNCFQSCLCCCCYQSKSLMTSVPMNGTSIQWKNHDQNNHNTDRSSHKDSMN

GAL2 (h) = biological target: T6, GAL2 (h) (Homo sapiens, UniProt O43603); test: Receptor binding screen, [^125I]galanin; details: 10 uM Concentration of Compound I-1-Z; read-out: Mean Value, percent inhibition of control specific binding: GAL2 (h)
T6 construct: expressed in transfected cells; host or cells: CHO cells
T6 sequence (O43603 whole entry): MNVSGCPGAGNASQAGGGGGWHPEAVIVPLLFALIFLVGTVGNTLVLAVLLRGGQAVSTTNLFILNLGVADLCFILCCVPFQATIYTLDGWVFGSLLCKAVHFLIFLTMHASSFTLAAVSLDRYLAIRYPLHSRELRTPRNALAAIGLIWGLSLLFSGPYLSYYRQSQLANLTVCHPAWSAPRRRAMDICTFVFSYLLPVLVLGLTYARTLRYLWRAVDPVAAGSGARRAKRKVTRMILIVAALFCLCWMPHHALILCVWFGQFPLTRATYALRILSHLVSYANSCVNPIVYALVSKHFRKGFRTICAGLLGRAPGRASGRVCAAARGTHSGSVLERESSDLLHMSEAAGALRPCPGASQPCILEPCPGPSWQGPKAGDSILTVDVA

CXCR2 (h) (IL-8B) = biological target: T7, CXCR2 (h) (IL-8B) (Homo sapiens, UniProt P25025); test: Receptor binding screen, [^125I]IL-8; details: 10 uM Concentration of Compound I-1-Z; read-out: Mean Value, percent inhibition of control specific binding: CXCR2 (h) (IL-8B)
T7 construct: expressed in transfected cells; host or cells: HEK-293 cells
T7 sequence (P25025 whole entry): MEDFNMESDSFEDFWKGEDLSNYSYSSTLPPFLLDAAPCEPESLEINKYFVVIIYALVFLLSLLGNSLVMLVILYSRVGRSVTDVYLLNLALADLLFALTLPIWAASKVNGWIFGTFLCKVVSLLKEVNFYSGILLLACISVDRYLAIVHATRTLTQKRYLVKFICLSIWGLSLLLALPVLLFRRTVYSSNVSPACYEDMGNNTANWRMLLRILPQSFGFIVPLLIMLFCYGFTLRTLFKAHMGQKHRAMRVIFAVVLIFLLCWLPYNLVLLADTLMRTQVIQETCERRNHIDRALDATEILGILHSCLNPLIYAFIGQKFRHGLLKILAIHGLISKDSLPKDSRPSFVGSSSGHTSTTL

NT1 (h) (NTS1) = biological target: T8, NT1 (h) (NTS1) (Homo sapiens, UniProt P30989); test: Receptor binding screen, [^125I]Tyr^3-neurotensin; details: 10 uM Concentration of Compound I-1-Z; read-out: Mean Value, percent inhibition of control specific binding: NT1 (h) (NTS1)
T8 construct: expressed in transfected cells; host or cells: CHO cells
T8 sequence (P30989 whole entry): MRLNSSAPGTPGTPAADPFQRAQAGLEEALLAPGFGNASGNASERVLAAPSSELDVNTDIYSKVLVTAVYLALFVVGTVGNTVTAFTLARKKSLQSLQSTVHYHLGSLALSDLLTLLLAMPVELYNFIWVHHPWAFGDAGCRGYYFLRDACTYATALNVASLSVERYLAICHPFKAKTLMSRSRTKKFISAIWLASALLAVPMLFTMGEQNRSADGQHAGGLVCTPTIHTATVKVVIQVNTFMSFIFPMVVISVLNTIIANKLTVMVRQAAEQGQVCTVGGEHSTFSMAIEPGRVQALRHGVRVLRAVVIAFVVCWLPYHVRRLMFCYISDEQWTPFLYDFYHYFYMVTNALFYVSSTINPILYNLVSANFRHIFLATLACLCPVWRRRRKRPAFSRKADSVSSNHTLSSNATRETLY

ORL1 (h) (NOP) = biological target: T9, ORL1 (h) (NOP) (Homo sapiens, UniProt P41146); test: Receptor binding screen, [^3H]nociceptin; details: 10 uM Concentration of Compound I-1-Z; read-out: Mean Value, percent inhibition of control specific binding: ORL1 (h) (NOP)
T9 construct: expressed in transfected cells; host or cells: HEK-293 cells
T9 sequence (P41146 whole entry): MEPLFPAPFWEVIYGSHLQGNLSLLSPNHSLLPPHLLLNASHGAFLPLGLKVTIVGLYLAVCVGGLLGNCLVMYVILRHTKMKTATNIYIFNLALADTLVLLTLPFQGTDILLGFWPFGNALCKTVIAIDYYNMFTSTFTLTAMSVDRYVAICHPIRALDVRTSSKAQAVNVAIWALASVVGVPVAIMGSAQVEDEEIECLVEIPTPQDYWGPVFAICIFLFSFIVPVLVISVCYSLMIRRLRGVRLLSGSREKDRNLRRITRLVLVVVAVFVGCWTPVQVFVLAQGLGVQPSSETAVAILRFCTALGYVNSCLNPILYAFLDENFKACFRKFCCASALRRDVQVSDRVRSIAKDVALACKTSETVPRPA
Description: as §1

5-HT2A (h) = biological target: T10, 5-HT2A (h) (Homo sapiens, UniProt P28223); test: Receptor binding screen, [^3H]ketanserin; details: 10 uM Concentration of Compound I-1-Z; read-out: Mean Value, percent inhibition of control specific binding: 5-HT2A (h)
T10 construct: expressed in transfected cells; host or cells: HEK-293 cells
T10 sequence (P28223 whole entry): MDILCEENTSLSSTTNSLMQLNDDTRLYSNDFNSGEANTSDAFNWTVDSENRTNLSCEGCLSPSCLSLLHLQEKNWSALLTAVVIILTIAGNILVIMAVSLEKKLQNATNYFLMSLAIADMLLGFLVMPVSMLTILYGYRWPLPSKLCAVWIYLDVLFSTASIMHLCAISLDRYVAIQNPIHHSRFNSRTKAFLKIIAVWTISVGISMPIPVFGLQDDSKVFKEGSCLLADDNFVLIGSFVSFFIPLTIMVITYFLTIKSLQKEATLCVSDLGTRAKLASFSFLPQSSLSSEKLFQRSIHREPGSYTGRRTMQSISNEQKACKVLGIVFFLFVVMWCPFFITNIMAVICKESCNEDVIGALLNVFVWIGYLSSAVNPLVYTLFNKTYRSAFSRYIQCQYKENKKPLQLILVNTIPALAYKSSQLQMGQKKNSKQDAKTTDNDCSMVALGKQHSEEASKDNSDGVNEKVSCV

5-HT2C (h) = biological target: T11, 5-HT2C (h) (Homo sapiens, UniProt P28335); test: Receptor binding screen, [^3H]mesulergine; details: 10 uM Concentration of Compound I-1-Z; read-out: Mean Value, percent inhibition of control specific binding: 5-HT2C (h)
T11 construct: expressed in transfected cells; host or cells: CHO cells
T11 sequence (P28335 33-458): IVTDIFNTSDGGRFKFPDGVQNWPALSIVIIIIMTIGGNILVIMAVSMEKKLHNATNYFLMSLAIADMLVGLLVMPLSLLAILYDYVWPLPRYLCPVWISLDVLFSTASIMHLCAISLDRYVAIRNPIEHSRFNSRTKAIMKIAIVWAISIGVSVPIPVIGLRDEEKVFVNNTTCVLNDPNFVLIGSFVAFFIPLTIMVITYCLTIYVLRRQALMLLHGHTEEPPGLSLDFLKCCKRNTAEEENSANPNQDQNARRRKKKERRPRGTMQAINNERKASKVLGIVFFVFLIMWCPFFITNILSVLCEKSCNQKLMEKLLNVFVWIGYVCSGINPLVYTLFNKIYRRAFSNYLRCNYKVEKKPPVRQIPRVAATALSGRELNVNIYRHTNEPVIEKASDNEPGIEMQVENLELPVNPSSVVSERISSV

- IC50 (Rat SSAO): 5 nM
Structure (SMILES): CCOc1ccc(C/C(=C/F)CN)cc1.Cl [Compound I-2-Z, (Z)-3-Fluoro-2-(4-ethoxybenzyl)-allylamine hydrochloride]

Structure (SMILES): COc1ccc(C/C(=C/F)CN)cc1.Cl [Compound I-1-Z, (Z)-3-Fluoro-2-(4-methoxybenzyl)-allylamine hydrochloride]
- IC50 (Rat SSAO): 13 nM
- inhibition at 10 µM (A3 (h)): 1%
- Mean Value, percent inhibition of control specific binding: α2 (non-selective) (α2 (non-selective)): 23%
- inhibition at 10 µM (CCKB (h) (CCK2)): -5%
- inhibition at 10 µM (D3 (h)): -2%
- inhibition at 10 µM (ETA (h)): 8%
- inhibition at 10 µM (GAL2 (h)): 12%
- inhibition at 10 µM (CXCR2 (h) (IL-8B)): -8%
- inhibition at 10 µM (NT1 (h) (NTS1)): -1%
- inhibition at 10 µM (ORL1 (h) (NOP)): -9%
- inhibition at 10 µM (5-HT2A (h)): -4%
- inhibition at 10 µM (5-HT2C (h)): 21%

- IC50 (Rat SSAO): 8 nM
Structure (SMILES): CCOc1ccc(C/C(=C\F)CN)cc1.Cl [Compound I-2-E, (E)-3-Fluoro-2-(4-ethoxybenzyl)-allylamine hydrochloride]

Structure (SMILES): NC/C(F)=C\Cc1cc(F)cc(C(F)(F)F)c1 [II-1-E, (E)-2-Fluoro-4-(3-fluoro-5-trifluoromethylphenyl)-but-2-enylamine]
- IC50 (Rat SSAO): 38 nM
